In patent US20260125374A1, “PI3K-ALPHA INHIBITORS AND METHODS OF MAKING AND USING THE SAME” (Relay Therapeutics, Inc., priority 2021, published 2026):
In brackets after ≈: the same amount, converted by molar mass.

Legend:
Format in all cases: physicochemical
[1] = Solubility study at 37° C. (buffer, water, bio-relevant media, MeOH/DCM)
Experimental: In addition, residual solids were checked by chiral HPLC to confirm whether racemization occurs.
Accurate 4 mg of I-1 Form A, 5.13 mg of I-3 Form A, 4.63 mg of I-4 Form A was weighed into a 8 mL glass vial, respectively. 2 mL of solubility medium was added. The salt amount used is equivalent to 4 mg anhydrous free form. Obtained suspensions/solutions were stirred at 37° C. at 400 rpm for 2 hours and 24 hours and then centrifuged at 37° C. at 14,000 rpm for 5 min. Supernatants were analyzed by UPLC and PH meter for solubility and pH value, respectively. Residual solids (wet cakes) were characterized by XRPD to determine physical form and then analyzed by HPLC for chiral purity.

Bulk stability (1 week) = assay: Bulk stability (1 week); design: key to CL (color): A: No change of color; B: Slight discoloration; C: Medium discoloration; D: Strong discoloration; DC: complete decomposition; conditions: for CL (color) / Bulk (HPLC) chiral purity / Bulk (HPLC) purity / Bulk (XRPD): Solid state, 1 week
Experimental: Bulk stability of I-1 Form A and the 2 salt candidates was investigated at 25° C./92% RH in an open container, at 40° C./75% RH in an open container and at 60° C. in a tight container over 1 week. […] All the 3 salts show no obvious racemization based on chiral purity results.
I-1 Form A and the 2 salts were placed at 25° C./92% RH in an open container, at 40° C./75% RH in an open container and at 60° C. in a closed container for I week. Samples after I week were characterized by XRPD and HPLC and inspected for color change.

[2] = Suspension stability at 25° C.; conditions: for Solubility (μg/mL): LOQ: 0.25 μg/mL
Experimental: Suspension stability: Suspension stability of I-1 Form A and the 2 salt candidates was investigated in pure water, 0.5% (w/w) Tween 80 aqueous solution and 0.5% (w/w) MC (400 cP)+2% (w/w) Vitamin E TPGS aqueous solution at 25° C. for 2 h and 24 h. Target concentration was 2 mg/mL.
To confirm whether racemization occurs for the 2 salts in 0.5% (w/w) MC (400 cP)+2% (w/w) Vitamin E TPGS aqueous solution, the suspension stability in this vehicle was repeated at target concentration of 10 mg/mL. […] The hygroscopicity of these salts were further investigated.
Accurate 10 mg of I-1 Form A, 12.83 mg of I-3 Form A, 11.58 mg of I-4 Form A was weighed into a 8 mL glass vial, respectively. 5 mL of suspension vehicle was added, respectively. The salt amount used is equivalent to 10 mg anhydrous free form. These suspensions were stirred at 25° C. with 400 rpm. These suspensions were taken out at 2 hours and 24 hours, then centrifuged at 14,000 rpm for 5 min. The supernatants were analyzed by HPLC and pH meter. Solids obtained (wet cakes) were characterized by XRPD and HPLC to determine the chiral purity.
Accurate […] of I-3 Form A, 46.3 mg of I-4 Form A was weighed into a 8 mL glass vial, respectively. 4 mL of solubility medium was added, respectively. The salt amount used is equivalent to 40 mg anhydrous free form. 4 mL of the aqueous vehicle (0.5% (w/w) MC (400 cP) and 2% (w/w) Vitamin E TPGS in water) was added, respectively. These suspensions were stirred at 25° C. with 400 rpm. These suspensions were taken out at 2 hours and 24 hours, then centrifuged at 14,000 rpm for 5 min. The supernatants were analyzed by HPLC for the solubility and chiral purity and analyzed by pH meter. Solids obtained (wet cakes) were characterized by XRPD and HPLC for chiral purity.

[3] = FaSSIF-V1, pH 6.5, 2 hours, listed as I-1 Form A
[4] = FaSSIF-V1, pH 6.5, 24 hours, listed as I-1 Form A
[5] = FeSSIF-V1, pH 5.0, 24 hours, listed as I-1 Form A
[6] = SGF, pH 2.0, 24 hours, listed as I-1 Form A
[7] = Water, 24 hours, listed as I-1 Form A
[8] = pH 2, HCl, 24 hours, listed as I-1 Form A
[9] = Salt candidates risk matrix (summary)
[10] = 25° C./92% RH, open container, listed as I-1 Form A
[11] = 40° C./75% RH, open container, listed as I-1 Form A
[12] = 60° C., tight container, listed as I-1 Form A
[13] = before storage, listed as I-1 Form A
[14] = 25° C., 2 mg/mL, 0.5%(w/w) MC(400 cP) and 2%(w/w) Vitamin E TPGS in water, 2 h, listed as I-1 Form A
[15] = 25° C., 2 mg/mL, 0.5%(w/w) MC(400 cP) and 2%(w/w) Vitamin E TPGS in water, 24 h, listed as I-1 Form A
[16] = 25° C., 2 mg/mL, 0.5%(w/w) Tween 80 in water, 2 h, listed as I-1 Form A
[17] = 25° C., 2 mg/mL, 0.5%(w/w) Tween 80 in water, 24 h, listed as I-1 Form A
[18] = 25° C., 2 mg/mL, Pure water, 2 h, listed as I-1 Form A
[19] = 25° C., 2 mg/mL, Pure water, 24 h, listed as I-1 Form A

## N#Cc1c(-c2cc(NC(=O)c3cc(F)cc(C(F)(F)F)c3)c3c(c2)C(=O)N[C@H]3c2cc(F)ccc2Cl)ccc2ncnn12 [Compound I-1, (R)-N-(3-(2-chloro-5-fluorophenyl)-6-(5-cyano-[1,2,4]triazolo[1,5-a]pyridin-6-yl)-1-oxoisoindolin-4-yl)-3-fluoro-5-(trifluoromethyl)benzamide]
[1]; [3]
  Chiral purity: purity: 97.7%)
  Solubility: 4.5 μg/mL(chiral
[1]; FaSSIF-V1, pH 6.5, 24 hours
  Chiral purity: (chiral purity: 97.7%)
[1]; [4]
  Chiral purity (solids): 98.9%)
  Solubility: 11.9 µg/mL (≈ 19.5 µM)
  pH of supernatant: 6.45
[1]; FeSSIF-V1, pH 5.0, 2 hours, listed as I-1 Form A
  Solubility: 20.5 µg/mL (≈ 33.7 µM)
[1]; [5]
  Chiral purity (solids): 85.7%)
  Solubility: 40.6 µg/mL (≈ 66.7 µM)
  pH of supernatant: 4.87
[1]; MeOH/DCM (1:2, v/v), 37 °C, organic solvent or mixture, thermodynamic from solid, MeOH/DCM (1:2, v/v), 2 hours
  solubility at 2 h: > 145000 µg/mL
[1]; MeOH/DCM (1:2, v/v), 37 °C, organic solvent or mixture, thermodynamic from solid, MeOH/DCM (1:2, v/v), 24 hours
  solubility at 24 h: > 145000 µg/mL
[1]; MeOH/DCM (1:2, v/v), 37 °C, organic solvent or mixture, thermodynamic from solid, read-out: solubility in MeOH/DCM (1:2, v/v)
  Solubility: > 145000 µg/mL
[1]; SGF, pH 2.0, 2 hours, listed as I-1 Form A
  Solubility: 11.2 µg/mL (≈ 18.4 µM)
[1]; [6]
  Chiral purity (solids): 98.9%)
  Solubility: 6.4 µg/mL (≈ 10.5 µM)
  pH of supernatant: 2.04
[1]; Water, 2 hours, LOQ: 0.5 μg/mL
  Solubility: <LOQ
[1]; Water, 24 hours, LOQ: 0.5 μg/mL
  Solubility: LOQ
[1]; [7]
  Chiral purity (solids): 98.9%)
  pH of supernatant: 7.50
[1]; pH 2, HCl, 2 hours, LOQ: 0.5 μg/mL
  Solubility: <LOQ
[1]; pH 2, HCl, 24 hours, LOQ: 0.5 μg/mL
  Solubility: LOQ
[1]; [8]
  Chiral purity (solids): 98.9%)
  pH of supernatant: 2.03
[1]; pH 2.0 HCl buffer solution, 37 °C, pH 2, aqueous buffer, thermodynamic from solid, solubility in pH 2 HCl buffer solution, 2 h and 24 h, LOQ=0.5 μg/mL
  Solubility: < 0.5 µg/mL
[1]; water, 37 °C, water, thermodynamic from solid, 2 h and 24 h, LOQ=0.5 μg/mL, read-out: solubility in pure water
  Solubility: < 0.5 µg/mL
Bulk stability (1 week); [9]
  Chemical stability: Stable
  Physical stability: Stable
Bulk stability (1 week); 25° C./92% RH, open container
  CL (color): A
Bulk stability (1 week); [10]
  Bulk (HPLC) chiral purity: 98.9%
  Bulk (HPLC) purity: 99.0%/
  Bulk (XRPD): No form change
Bulk stability (1 week); 40° C./75% RH, open container
  CL (color): A
Bulk stability (1 week); [11]
  Bulk (HPLC) chiral purity: 98.9%
  Bulk (HPLC) purity: 99.0%/
  Bulk (XRPD): No form change
Bulk stability (1 week); 60° C., tight container
  Bulk (XRPD): No form change
  CL (color): A
Bulk stability (1 week); [12]
  Bulk (HPLC) chiral purity: 98.9%
  Bulk (HPLC) purity: 99.0%/
Bulk stability (1 week); [13]
  Chiral purity (initial): 99.0%
  Initial purity by HPLC: 99.0%
[2]; 3 vehicles, 25° C., 2 mg/mL
  physical stability in suspension (XRPD): physically stable
  racemization in suspension: no racemization
[2]; 25° C., 2 mg/mL, 0.5%(w/w) MC(400 cP) and 2%(w/w) Vitamin E TPGS in water, 2 h
  Chiral purity (solids): 98.7%
[2]; [14]
  Chiral purity: 64.8%
  Purity: 99.5%
  Solubility: 47.9 µg/mL (≈ 78.7 µM)
  pH: 5.02
[2]; 25° C., 2 mg/mL, 0.5%(w/w) MC(400 cP) and 2%(w/w) Vitamin E TPGS in water, 24 h
  Chiral purity (solids): 96.6%
[2]; [15]
  Chiral purity: 97.7%
  Purity: 99.1%
  Solubility: 34.5 µg/mL (≈ 56.7 µM)
  pH: 4.30
[2]; [16]
  Chiral purity: 83.2%
  Chiral purity (solids): 98.8%
  Purity: 99.1%
  Solubility: 25.5 µg/mL (≈ 41.9 µM)
  pH: 6.52
[2]; [17]
  Chiral purity: 93.0%
  Chiral purity (solids): 97.6%
  Purity: 99.2%
  Solubility: 17.6 µg/mL (≈ 28.9 µM)
  pH: 7.40
[2]; 25° C., 2 mg/mL, Pure water, 2 h
  Solubility (μg/mL): <LOQ
[2]; [18]
  Chiral purity (solids): 98.8%
  Purity: 99.1%
  pH: 6.79
[2]; 25° C., 2 mg/mL, Pure water, 24 h
  Solubility (μg/mL): <LOQ
[2]; [19]
  Chiral purity (solids): 96.7%
  Purity: 99.2%
  pH: 8.27
[2]; before suspension, listed as I-1 Form A
  Initial chiral purity: Initial chiral purity: 98.9%
[2]; water, 0.5% Tween 80, 0.5% MC (400 cP)+2% Vitamin E TPGS, 25° C., 2 h and 24 h, 2 mg/mL
  chemical stability in suspension: chemically stable
